Results reported in patent US11202821B2, “Glucose oxidase compositions” (VEGANUTRITECH LLP, priority 2016, dated 2021).
Values joined by “and” are separate entries in the source; they are usually repeats but may differ in a detail not shown here. Equal values may be shown once.

How the values were obtained:
[1] = Glucose tolerance test on healthy volunteers; format: in vivo, human
Text: The data is as provided under table 21 and reflects that the sweetener compositions of the present invention are safer to use even for healthy individuals as compared to artificial sweeteners.
Observations of glucose tolerance test on healthy volunteers were made after the consumption of the sweetener composition containing glucose oxidase enzyme, as per the embodiment of the present invention and in comparison, to known artificial sweetener product having artificial sweetener sucralose and bulking agent dextrose monohydrate.

[2] = Calorific value by Bomb calorimeter; format: physicochemical
Method: Known sweetener compositions based on artificial sweeteners such as sucralose or Acesulfame K along with natural sugar substitute compositions including stevia, sugar, glucose and sucrose, were compared with the sweetener or the nutraceutical compositions containing glucose oxidase enzyme for their calorific values. The calorific values are determined using Bomb calorimeter.

[3] = Effect on body weight and muscle mass in type 2 diabetic patients; format: in vivo, human; conditions: type 2 diabetic patient, dose 25 gms per day
Method: Six type 2 diabetic patients were randomly administered the Glucose oxidase containing sweetener composition as per the embodiment of the present invention for […], 5 patients were administered sugar and compositions containing natural sugar substitute (stevia based) based sweeteners, or artificial sweeteners based on Sucralose or Acem or compositions containing dietary fibres with saccharides, dietary fibres with sugar alcohols and dietary fibres with sugar alcohols and saccharides, the details of which are as set forth in the Table below. One patient was not given any composition. Before the onset of the study (week 0) and after 2 months, weight measurements were taken.

buccal epithelial cells = assay: Non invasive micronucleus assay for oxidative stress in diabetic individuals; format: in vivo, human; conditions: dose 40 gms (0.005 gms for the drugs)
Text: Known pharmaceutical/nutraceutical compositions as well as other artificial sweeteners were compared to the pharmaceutical composition including the glucose oxidase enzyme of the invention for controlling oxidative stress in diabetic individuals.
Micronucleus is a small nucleus (also known as erratic or third nucleus), present in the cytoplasm of the cell. Formation of micronuclei indicates oxidative stress and genetic damage. The micronucleus assay using scraped buccal epithelial cells is an easy and non-invasive assay to estimate oxidative stress.
The results of the Non Invasive Micronucleus Assay, using buccal epithelial cells were tabulated as follows: […]

## OC[C@H]1O[C@H](O[C@]2(CCl)O[C@H](CCl)[C@@H](O)[C@@H]2O)[C@H](O)[C@@H](O)[C@H]1Cl [Sucralose]
[1]; conclusion in words
  Glycemic Response: respond almost in the same manner as that of Glucose

## O.O=C[C@H](O)[C@@H](O)[C@H](O)[C@H](O)CO [Dextrose monohydrate]
[1]; 2 hrs after 75 gms in 200 ml of water, individual values, monohydrate
  Blood Sugar After 2 hrs: 141 and 149 (3×) and 160 (3×) and 156 (2×) and 170 and 175 and 150 and 145 and 158 and 169 and 154 and 159 and 157 and 164 and 161
[1]; after 2 hrs, 75 gms in 200 ml of water, average of 20 respondents
  Blood Sugar After 2 hrs, Average/20 respondents: dents- 157.1
[1]; before drinking 75 gms in 200 ml of water, individual values, monohydrate
  Blood Sugar Initial: 80 and 79 and 97 and 96 and 100 (2×) and 105 (2×) and 104 (2×) and 86 and 89 and 98 and 102 (2×) and 87 and 95 and 99 and 103 and 93
[1]; initial, average of 20 respondents
  Blood Sugar Initial, Average/20 respondents: dents- 92.2

## OC[C@H]1OC(O)[C@H](O)[C@@H](O)[C@@H]1O (stereo partly drawn) [Glucose]
[2]
  Calories/100 g: 400 Calories/100 g

## OC[C@H]1O[C@@](CO)(O[C@H]2O[C@H](CO)[C@@H](O)[C@H](O)[C@H]2O)[C@@H](O)[C@@H]1O [Sugar]
[3]; baseline (week 0)
  Initial Body weight: 60 Kgs
[3]
  Body weight (after two months): 62.5 Kgs
  Muscle mass increase in % over three months: No change
[2]
  Calories/100 g: 400 Calories/100 g
Buccal epithelial cells; baseline
  Oxidative stress Values (% of cells containing micronuclei) before administration: 5.0 % of cells containing micronuclei
Buccal epithelial cells
  Oxidative stress Values (% of cells containing micronuclei) one month after administration: 7 % of cells containing micronuclei
